Consider four molecules from paper PMC4290623, “Homopharma: A new concept for exploring the molecular binding mechanisms and drug repurposing” (BMC Genomics, 2014).

What all share (assay): In vitro enzymatic profiling, HotSpot assay platform
Common to all, as to format: biochemical

The target of one assay is T1, IGF1R (Homo sapiens, UniProt P08069).
T1 construct: purchased Reaction Biology Corporation
The following applies: inhibitor 10 μM, ATP 10 μM; for IC50: duplicate, read-out: IC50 (bioactivity in the kinome picture). The procedure: (§1) In vitro enzymatic profiling of the 32 member kinase panel was performed at Reaction Biology Corporation (http://www.reactionbiology.com, Malvern, PA) using the "HotSpot" assay platform. Each kinase activity assay was performed in duplicate with inhibitor concentration of 10 μM and an ATP concentration of 10 μM.

In a further assay the target is T2, INSR (Homo sapiens, UniProt P06213).
T2 construct: purchased Reaction Biology Corporation
T2 sequence (P06213 28-1382): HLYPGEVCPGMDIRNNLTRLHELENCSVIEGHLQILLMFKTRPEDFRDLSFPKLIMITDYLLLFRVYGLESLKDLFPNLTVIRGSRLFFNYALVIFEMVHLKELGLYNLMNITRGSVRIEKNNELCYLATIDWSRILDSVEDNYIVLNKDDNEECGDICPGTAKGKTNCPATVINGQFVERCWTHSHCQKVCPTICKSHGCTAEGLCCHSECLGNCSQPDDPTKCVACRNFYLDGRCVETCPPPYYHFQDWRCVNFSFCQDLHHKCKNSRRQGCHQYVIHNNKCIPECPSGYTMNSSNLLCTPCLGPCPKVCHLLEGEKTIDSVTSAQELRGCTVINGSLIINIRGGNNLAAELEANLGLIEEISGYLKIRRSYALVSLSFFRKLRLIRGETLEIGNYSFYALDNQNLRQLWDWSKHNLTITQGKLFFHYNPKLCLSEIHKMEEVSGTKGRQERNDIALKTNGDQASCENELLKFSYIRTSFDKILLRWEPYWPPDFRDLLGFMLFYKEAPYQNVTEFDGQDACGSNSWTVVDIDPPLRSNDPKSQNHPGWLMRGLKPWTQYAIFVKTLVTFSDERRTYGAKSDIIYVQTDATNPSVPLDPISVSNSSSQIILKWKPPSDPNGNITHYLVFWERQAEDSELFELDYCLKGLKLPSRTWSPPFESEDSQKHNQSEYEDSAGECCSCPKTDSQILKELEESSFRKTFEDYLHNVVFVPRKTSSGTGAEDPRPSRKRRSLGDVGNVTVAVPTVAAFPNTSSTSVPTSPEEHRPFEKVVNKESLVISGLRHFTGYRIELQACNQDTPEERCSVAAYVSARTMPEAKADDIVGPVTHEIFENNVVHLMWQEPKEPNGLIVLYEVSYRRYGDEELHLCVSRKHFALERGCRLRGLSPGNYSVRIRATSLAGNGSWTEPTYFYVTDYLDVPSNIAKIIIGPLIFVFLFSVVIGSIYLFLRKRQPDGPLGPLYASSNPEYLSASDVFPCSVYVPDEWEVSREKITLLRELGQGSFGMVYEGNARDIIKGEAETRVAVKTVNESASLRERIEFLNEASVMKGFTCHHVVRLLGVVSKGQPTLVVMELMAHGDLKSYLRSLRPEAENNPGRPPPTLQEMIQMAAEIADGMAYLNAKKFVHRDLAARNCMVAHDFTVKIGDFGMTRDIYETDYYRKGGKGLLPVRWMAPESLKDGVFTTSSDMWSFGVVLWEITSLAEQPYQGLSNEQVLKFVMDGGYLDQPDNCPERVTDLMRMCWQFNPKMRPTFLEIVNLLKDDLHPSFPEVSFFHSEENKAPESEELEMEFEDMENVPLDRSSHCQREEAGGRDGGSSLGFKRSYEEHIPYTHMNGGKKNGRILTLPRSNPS
The note with it: inhibitor 10 μM, ATP 10 μM, duplicate, read-out: IC50 (bioactivity in the kinome picture). How it is done: as §1

A further assay has as its target T3, FGFR1 (Homo sapiens, UniProt P11362).
T3 construct: purchased Reaction Biology Corporation
The note with it: inhibitor 10 μM, ATP 10 μM; for IC50: duplicate, read-out: IC50 (bioactivity in the kinome picture). How it is done:
as §1

A further assay deals with T4, CAMK2G (Homo sapiens, UniProt Q13555).
T4 construct: purchased Reaction Biology Corporation
The note with it: inhibitor 10 μM, ATP 10 μM, duplicate, read-out: IC50 (bioactivity in the kinome picture). How it is done: In vitro enzymatic profiling of the 32 member kinase panel was performed at Reaction Biology Corporation (http://www.reactionbiology.com, Malvern, PA) using the "HotSpot" assay platform. Each kinase activity assay was performed in duplicate with inhibitor concentration of 10 μM and an ATP concentration of 10 μM. […] Another compound JMY84 could also be used as drug candidates of colorectal cancer due to its effects on CHEK2, LIMK1, and FGFR1 (Figures 5D and 5E).

The target in another assay is T5, KIT (Homo sapiens, UniProt P10721).
T5 construct: purchased Reaction Biology Corporation
The following applies: inhibitor 10 μM, ATP 10 μM. The procedure:
as §1

The next assay concerns the target T6, EGFR (Homo sapiens, UniProt P00533).
T6 construct: purchased Reaction Biology Corporation
The note with it: inhibitor 10 μM, ATP 10 μM. How it is done: as §1

Another assay concerns the target T7, LCK (Homo sapiens, UniProt P06239).
T7 construct: purchased Reaction Biology Corporation
The note with it: inhibitor 10 μM, ATP 10 μM. How it is done:
as §1

The target in another assay is T8, MAPK3 (Homo sapiens, UniProt P27361).
T8 construct: purchased Reaction Biology Corporation
T8 sequence (P27361 whole entry): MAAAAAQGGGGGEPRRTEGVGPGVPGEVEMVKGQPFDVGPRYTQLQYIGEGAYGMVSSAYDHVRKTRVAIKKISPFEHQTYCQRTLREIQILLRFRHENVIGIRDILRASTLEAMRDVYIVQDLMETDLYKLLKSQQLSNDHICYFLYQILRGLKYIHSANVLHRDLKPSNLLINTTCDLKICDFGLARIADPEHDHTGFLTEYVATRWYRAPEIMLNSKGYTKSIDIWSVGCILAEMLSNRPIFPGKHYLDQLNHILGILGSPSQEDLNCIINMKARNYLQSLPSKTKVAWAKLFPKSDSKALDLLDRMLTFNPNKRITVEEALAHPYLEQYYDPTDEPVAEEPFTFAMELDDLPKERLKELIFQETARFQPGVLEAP
The note with it: inhibitor 10 μM, ATP 10 μM. The procedure:
as §1

The target in the next assay is T9, SRC (Homo sapiens, UniProt P12931).
T9 construct: purchased Reaction Biology Corporation
T9 sequence (P12931 whole entry): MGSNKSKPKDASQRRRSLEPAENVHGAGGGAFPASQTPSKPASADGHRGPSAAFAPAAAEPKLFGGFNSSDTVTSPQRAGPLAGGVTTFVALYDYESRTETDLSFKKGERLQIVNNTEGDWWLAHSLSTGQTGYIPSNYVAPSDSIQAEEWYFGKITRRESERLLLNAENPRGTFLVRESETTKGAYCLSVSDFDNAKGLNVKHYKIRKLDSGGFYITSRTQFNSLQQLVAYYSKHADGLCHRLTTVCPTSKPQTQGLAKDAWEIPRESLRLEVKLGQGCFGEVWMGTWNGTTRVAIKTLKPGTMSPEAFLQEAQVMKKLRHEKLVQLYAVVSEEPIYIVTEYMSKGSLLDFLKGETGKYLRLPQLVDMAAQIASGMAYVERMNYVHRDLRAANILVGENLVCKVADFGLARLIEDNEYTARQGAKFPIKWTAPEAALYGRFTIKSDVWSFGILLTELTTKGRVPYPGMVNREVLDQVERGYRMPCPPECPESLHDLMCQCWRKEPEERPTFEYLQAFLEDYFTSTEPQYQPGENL
The note with it: inhibitor 10 μM, ATP 10 μM. The procedure:
as §1

For the next assay, the target named is T10, AKT2 (Homo sapiens, UniProt P31751).
T10 construct: purchased Reaction Biology Corporation
The following applies: inhibitor 10 μM, ATP 10 μM. How it is done: as §1

A further assay concerns the target T11, CSNK2A1 (Homo sapiens, UniProt P68400).
T11 construct: purchased Reaction Biology Corporation
The following applies: inhibitor 10 μM, ATP 10 μM, duplicate, read-out: IC50 (bioactivity in the kinome picture). The procedure: In vitro enzymatic profiling of the 32 member kinase panel was performed at Reaction Biology Corporation (http://www.reactionbiology.com, Malvern, PA) using the "HotSpot" assay platform. […]

Another assay deals with T12, CHEK2 (Homo sapiens, UniProt O96017).
T12 construct: purchased Reaction Biology Corporation
The following applies: inhibitor 10 μM, ATP 10 μM. The procedure:
as §1

In a further assay the target is T13, LIMK1 (Homo sapiens, UniProt P53667).
T13 construct: purchased Reaction Biology Corporation
T13 sequence (P53667 whole entry): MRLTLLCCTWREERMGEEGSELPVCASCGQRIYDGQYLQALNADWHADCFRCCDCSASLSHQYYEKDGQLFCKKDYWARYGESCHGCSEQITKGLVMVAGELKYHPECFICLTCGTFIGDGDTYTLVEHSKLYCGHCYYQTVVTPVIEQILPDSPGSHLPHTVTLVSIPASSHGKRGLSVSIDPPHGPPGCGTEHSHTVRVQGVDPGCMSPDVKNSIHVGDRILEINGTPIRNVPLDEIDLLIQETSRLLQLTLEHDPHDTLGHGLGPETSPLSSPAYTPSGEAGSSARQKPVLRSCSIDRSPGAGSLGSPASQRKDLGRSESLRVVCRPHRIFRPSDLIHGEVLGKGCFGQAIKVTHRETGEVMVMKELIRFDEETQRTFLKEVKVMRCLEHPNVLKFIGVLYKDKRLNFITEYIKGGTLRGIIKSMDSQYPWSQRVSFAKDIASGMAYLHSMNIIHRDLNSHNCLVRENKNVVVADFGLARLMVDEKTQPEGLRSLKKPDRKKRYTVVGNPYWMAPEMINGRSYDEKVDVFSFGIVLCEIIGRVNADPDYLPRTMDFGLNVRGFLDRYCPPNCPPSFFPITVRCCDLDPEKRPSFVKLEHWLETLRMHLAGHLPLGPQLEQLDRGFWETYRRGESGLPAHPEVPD
The following applies: inhibitor 10 μM, ATP 10 μM. The procedure:
as §1

T1 sequence (P08069 31-1367): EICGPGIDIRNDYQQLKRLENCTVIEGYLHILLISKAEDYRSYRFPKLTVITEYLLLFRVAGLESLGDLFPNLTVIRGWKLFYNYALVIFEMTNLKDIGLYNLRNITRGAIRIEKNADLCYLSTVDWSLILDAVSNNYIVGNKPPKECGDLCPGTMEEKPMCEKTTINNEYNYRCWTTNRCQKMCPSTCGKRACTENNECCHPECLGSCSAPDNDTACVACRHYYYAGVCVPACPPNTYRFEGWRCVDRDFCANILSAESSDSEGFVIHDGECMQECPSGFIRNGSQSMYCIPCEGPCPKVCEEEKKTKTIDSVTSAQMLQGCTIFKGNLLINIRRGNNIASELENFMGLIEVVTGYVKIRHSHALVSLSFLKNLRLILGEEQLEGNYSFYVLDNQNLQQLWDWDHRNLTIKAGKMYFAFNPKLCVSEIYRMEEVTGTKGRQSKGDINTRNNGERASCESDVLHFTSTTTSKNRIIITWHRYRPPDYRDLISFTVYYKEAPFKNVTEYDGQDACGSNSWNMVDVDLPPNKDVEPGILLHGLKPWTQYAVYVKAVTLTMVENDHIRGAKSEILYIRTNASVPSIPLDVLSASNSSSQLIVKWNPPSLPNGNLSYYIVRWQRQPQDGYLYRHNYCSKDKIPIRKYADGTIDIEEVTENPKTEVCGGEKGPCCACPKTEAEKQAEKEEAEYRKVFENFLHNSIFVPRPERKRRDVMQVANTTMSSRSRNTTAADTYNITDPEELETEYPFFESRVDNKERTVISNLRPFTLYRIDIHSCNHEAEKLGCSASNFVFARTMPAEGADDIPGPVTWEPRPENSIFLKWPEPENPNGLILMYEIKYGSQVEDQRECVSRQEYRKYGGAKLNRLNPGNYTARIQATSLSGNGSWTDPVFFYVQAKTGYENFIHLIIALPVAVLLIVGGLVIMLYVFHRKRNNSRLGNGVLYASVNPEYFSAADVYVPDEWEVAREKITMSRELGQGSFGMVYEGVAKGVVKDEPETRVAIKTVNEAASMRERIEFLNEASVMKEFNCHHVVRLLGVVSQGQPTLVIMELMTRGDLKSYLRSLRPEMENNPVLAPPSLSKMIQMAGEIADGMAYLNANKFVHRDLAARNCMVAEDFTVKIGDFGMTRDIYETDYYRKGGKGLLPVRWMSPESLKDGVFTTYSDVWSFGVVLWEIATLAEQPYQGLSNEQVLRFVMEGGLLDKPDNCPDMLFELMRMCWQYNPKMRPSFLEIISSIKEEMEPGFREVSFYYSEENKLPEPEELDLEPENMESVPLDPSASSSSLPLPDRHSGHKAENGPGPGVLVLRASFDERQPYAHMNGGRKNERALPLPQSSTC
T3 sequence (P11362 22-822): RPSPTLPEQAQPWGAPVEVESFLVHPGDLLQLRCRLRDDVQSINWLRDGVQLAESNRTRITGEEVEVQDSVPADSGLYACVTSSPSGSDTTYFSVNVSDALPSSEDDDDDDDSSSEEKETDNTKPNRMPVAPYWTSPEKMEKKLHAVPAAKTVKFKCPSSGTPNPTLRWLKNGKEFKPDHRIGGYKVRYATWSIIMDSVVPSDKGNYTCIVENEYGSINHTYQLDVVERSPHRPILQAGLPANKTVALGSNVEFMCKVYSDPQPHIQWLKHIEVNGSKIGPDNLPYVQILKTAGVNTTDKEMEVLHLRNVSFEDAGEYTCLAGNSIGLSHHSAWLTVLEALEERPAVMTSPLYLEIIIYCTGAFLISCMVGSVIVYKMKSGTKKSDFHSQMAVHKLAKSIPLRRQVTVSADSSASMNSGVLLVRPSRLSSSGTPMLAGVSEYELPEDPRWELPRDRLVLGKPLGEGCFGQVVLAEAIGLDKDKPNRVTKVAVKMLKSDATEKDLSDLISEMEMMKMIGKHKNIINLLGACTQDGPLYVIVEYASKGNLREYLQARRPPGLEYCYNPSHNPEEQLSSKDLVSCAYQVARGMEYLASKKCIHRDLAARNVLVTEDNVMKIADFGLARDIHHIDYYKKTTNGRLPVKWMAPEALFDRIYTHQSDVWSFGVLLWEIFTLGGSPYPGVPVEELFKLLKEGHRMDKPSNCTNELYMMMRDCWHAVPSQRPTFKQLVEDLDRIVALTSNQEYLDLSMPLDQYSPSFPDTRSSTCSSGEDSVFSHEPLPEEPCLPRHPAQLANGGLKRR

The IC50 is the midpoint of a concentration-inhibition curve. Consider `O=c1cc(-c2ccccc2)oc2cc(O)c(O)c(O)c12` [JMY51], for which the IC50 at IGF1R was ~1000 nM; at INSR, ~2000 nM; at FGFR1, ~3000 nM.

On to `O=c1c(O)c(-c2ccc(O)c(O)c2)oc2cc(O)cc(O)c12` [Quercetin, quercetin, reference compound], for which the half-inhibitory concentration (IC50) on CAMK2G and at FGFR1 was ~1000 nM throughout.

Turning to `O=C(Oc1cc(O)c2c(c1)OC(c1ccc(O)c(O)c1)C(O)C2)c1cc(O)c(O)c(O)c1` (stereo not drawn) [JMY65], the “inhibitory activity (in words)” value at KIT, on LCK and on SRC was “inhibitory activities” throughout. The “inhibitory effect (in words)” value against EGFR, against IGF1R, against MAPK3 and on AKT2 was “inhibitory effects” in each case. The IC50 on IGF1R is ~100 nM; at SRC (duplicate, read-out: IC50 (bioactivity in the kinome picture)) it was ~500 nM.

Turning to `O=c1c(O)c(-c2ccc(OC3OC(CO)C(O)[C@@H](O)C3O)c(O)c2)oc2cc(O)cc(O)c12` (stereo partly drawn) [JMY84], the IC50 on CSNK2A1 was ~1000 nM. The “effect on kinase (in words)” value on CHEK2, at FGFR1 and on LIMK1 was “effects” each time.
